Assay results as given in ChEMBL document CHEMBL6134909 (Eur J Med Chem, 2025).
Calls of active or inactive are those of the source. The calls are words filed in the database; no cut-off is given here.

Experiments:
Influenza A virus [1] = assay: (§1) Anti-viral activity against Influenza A virus H3N2 A/Hong Kong/11/1968 infected in human A549 cells assessed as decrease in viral replication at 1 uM incubated with compound and virus for 1 hr followed by inoculum removal and media replacement with compound measured after 48 hrs by extracting viral supernatant from cells and transferring supernatant to MDCK cells for measuring plaque formation; assay type: functional, organism-based; settings: time 49.0 hrs
Influenza A virus [2] = assay: as §1, with “log reduction” for “decrease”, “titer” for “replication”; assay type: functional; settings: time 49 hrs

| Structure (SMILES) | Activity (Influenza A virus [1]) | log10PFU/ml (Influenza A virus [2]) |
| --- | --- | --- |
| COc1ccc(-c2nc3ncccn3c2NC2CCCCC2)cc1 | Active |  |
| Fc1ccc(-c2nc3ncccn3c2NC2CCCCC2)cc1N1CCOCC1 | Active | 1.5 |
| Clc1cnc2nc(-c3ccccc3)c(NC3CCCCC3)n2c1 | Active | 1.5 |
| Cc1cc(C)n2c(NC3CCCCC3)c(-c3ccnc(Cl)c3)nc2n1 | Active |  |
| COc1cc(OC)cc(-c2nc3ncccn3c2NC2CCCCC2)c1 | Active | 1.5 |
| CCOC(=O)c1c(CSc2ccccc2)n(C)c2cc(Br)c(O)c(CN(C)C)c12 [UMIFENOVIR] | Active | 1.5 |
| CN1CCN(c2ccc(-c3nc4ncc(Cl)cn4c3NC3CCCCC3)c(F)c2)CC1 | Active |  |
| Fc1ccc(-c2nc3ncccn3c2NC2CCCCC2)cc1F | Active |  |
| Oc1ccc(-c2nc3ncccn3c2NC2CCCCC2)c(F)c1 | Active | 1.5 |
| Fc1cc(OCc2ccc(C(F)(F)F)cc2)ccc1-c1nc2ncccn2c1NC1CCCCC1 | Active | 1.5 |
| COCOc1ccc(-c2nc3ncccn3c2NC2CCCCC2)c(F)c1 | Active | 1.5 |
